Experiments:
CYP2E1 = CYP2E1 (Homo sapiens, UniProt P05181); assay: Metabolic pathways in vitro: effect of CYP inhibition on cabozantinib metabolite formation; assay type: in vitro ADME
juvenile rats = assay: Juvenile rat toxicity study; assay type: in vivo
Procedure: […]. Mortalities occurred at doses equal and greater than 1 mg/kg/day (approximately 0.16 times the clinical dose of 60 mg/day based on body surface area).

CYP3A4 [1] = target: T1, CYP3A4 (Homo sapiens, UniProt P08684); assay: Clinical drug interaction: strong CYP3A4 inducer rifampin on cabozantinib; assay type: in vivo; set-up: from tissue; conditions: with rifampin 600 mg daily for 31 days, healthy subjects
CYP3A4 [2] = target: T1, CYP3A4; assay: Clinical drug interaction: strong CYP3A4 inhibitor ketoconazole on cabozantinib; assay type: in vivo; set-up: from tissue; conditions: with ketoconazole 400 mg daily for 27 days, healthy subjects

T1 sequence (P08684 whole entry): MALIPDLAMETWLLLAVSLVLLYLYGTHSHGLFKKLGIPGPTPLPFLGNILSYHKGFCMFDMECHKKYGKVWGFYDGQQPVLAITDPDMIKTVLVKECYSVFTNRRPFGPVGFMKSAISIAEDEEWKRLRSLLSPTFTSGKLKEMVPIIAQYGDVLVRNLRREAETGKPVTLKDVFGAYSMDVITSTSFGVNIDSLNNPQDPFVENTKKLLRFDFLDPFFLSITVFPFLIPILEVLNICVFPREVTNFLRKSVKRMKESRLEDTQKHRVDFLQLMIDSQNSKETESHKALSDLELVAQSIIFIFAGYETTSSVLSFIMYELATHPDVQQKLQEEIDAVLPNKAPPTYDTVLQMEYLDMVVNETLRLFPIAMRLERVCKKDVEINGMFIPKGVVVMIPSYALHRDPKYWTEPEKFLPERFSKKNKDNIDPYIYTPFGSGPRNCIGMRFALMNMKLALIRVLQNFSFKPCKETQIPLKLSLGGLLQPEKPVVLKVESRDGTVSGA
Sequence of CYP2E1 (P05181 whole entry): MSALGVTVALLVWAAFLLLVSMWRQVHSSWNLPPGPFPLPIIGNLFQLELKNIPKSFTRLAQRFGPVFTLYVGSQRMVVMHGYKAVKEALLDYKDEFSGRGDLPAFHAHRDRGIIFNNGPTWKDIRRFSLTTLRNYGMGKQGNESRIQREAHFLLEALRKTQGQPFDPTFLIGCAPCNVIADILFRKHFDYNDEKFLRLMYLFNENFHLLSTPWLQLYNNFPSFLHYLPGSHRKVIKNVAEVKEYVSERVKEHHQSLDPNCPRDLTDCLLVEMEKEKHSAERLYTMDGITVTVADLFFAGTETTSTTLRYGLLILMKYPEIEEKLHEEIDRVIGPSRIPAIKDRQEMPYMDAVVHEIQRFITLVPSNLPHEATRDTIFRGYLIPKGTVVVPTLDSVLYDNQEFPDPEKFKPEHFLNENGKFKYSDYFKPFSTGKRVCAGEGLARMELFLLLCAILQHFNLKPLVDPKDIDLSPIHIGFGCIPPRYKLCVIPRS

COc1cc2nccc(Oc3ccc(NC(=O)C4(C(=O)Nc5ccc(F)cc5)CC4)cc3)c2cc1OC [cabozantinib]
Effect of inhibition of CYP2E1 on cabozantinib metabolite formation (CYP2E1): no effect | Mortality dose as multiple of the clinical dose of 60 mg/day based on body surface area (juvenile rats; 1 mg/kg/day): approximately 0.16 times | Doses at which mortalities occurred (juvenile rats; Postnatal Day 12 through 35 or 70): ≥ 1 mg/kg/day | Decrease in single-dose plasma cabozantinib exposure (AUC0-inf) (CYP3A4 [1]): 77% | Increase in single-dose plasma cabozantinib exposure (AUC0-inf) (CYP3A4 [2]): 38%

Reference: patent US11141413B2, “Method of treating renal cell carcinoma using N-(4-(6,7-dimethoxyquinolin-4-yloxy)phenyl)-N′-(4-fluorophenyl)cyclopropane-1,1-dicarboxamide, (2S)-hydroxybutanedioate” (Exelixis, Inc., priority 2016, dated 2021)
